Source: patent US7683073B2, “Isoquinoline-1,3,4-trione compounds, the synthetic method and the use thereof” (Shanghai Institute of Materia Medica, Chinese Academy of …, priority 2005, dated 2010)

Legend:
PC12 cells [1] = assay: Morphological comparison of PC12 cells treated with Aβ and caspase-3 inhibitors; details: inhibitor alone; 28 μM chen-1, 200 nM Ac-Asp-Glu-Val-Asp-aldehyde; phase contrast microscope, 72 hours
Experimental: Culture of cells: PC 12 cells were obtained from XiCan Tang of Institute of Material Medica, CAS. Media were DMEM(HG) containing 10% calf serum. PC12 were incubated in an incubator with constant temperature with 5% carbon dioxide at 37° C. The cells were inoculated in Petri dishes and 96-well plates in the amount […], the compounds of the present invention were added into after 12 hours, and […] of apoptosis inducer, Aβ25-35, was added after 24 hours.

PC12 cells [2] = assay: Flow cytometry detection of apoptotic PC12 cells (propidium iodide, sub-G1); type: cell-based
Experimental: Media were DMEM(HG) containing 10% calf serum.
2×10^6 cells were collected at different time respectively after PC12 were treated in the same method. Cell precipitation was washed twice with PBR, followed by adding ice ethanol, and the resulting solution was blown to disperse the cells into single, fixed for 2 hours at 4° C. Before staining, the solution was centrifuged at 300 rpm for 10 minutes, and the supernatant was discarded, then the precipitation was washed twice with PBR to remove ethanol substantially. Into the cell precipitation was added a staining solution (containing 0.1% TritonX-100, 0.1 mM EDTApH7.4, 0.01 mg/ml RNase A, 50 μg/ml propidium iodide). Cell fluorescence was detected with flow cytometry after the cells in staining solution for 30 minutes at 4° C. away from light, and percentage and cycle of apoptotic cells were calculated by analyzing DNA content. The results were obtained by flow cytometry laboratory of Institute of Biochemistry and Cell Biology, CAS.
As illustrated from the above results, it may be seen that caspase-3 inhibitors could protect PC12 markedly and resist apoptosis of PC12 mediated by neurotoxicity of Aβ of Aβ25-35, and they have no toxicity in low concentration themselves.

[3] = Aβ25-35 and inhibitor (2 μM Ac-DEVD-CHO, 28 μM Chen-1) in the medium at the same time
[4] = only caspase-3 inhibitor added, no Aβ25-35, after 72 hours

SMILES | toxic effect on PC12 cells (morphology) (PC12 cells [1]) | percentage of apoptotic cells (PC12 cells [2]; [3]) [%] | percentage of apoptotic cells (PC12 cells [2]; [4]) [%]
CC(=O)N[C@@H](CC(=O)O)C(=O)N[C@@H](CCC(=O)O)C(=O)N[C@H](C(=O)N[C@H](C=O)CC(=O)O)C(C)C [Ac-DEVD-CHO, Ac-Asp-Glu-Val-Asp-aldehyde] | no toxic effect | 4.01 | 2.27
O=C1NC(=O)c2ccccc2C1=O [Chen-1] | no toxic effect | 4.09 | 2.15
